Among the test systems are 786-0 renal; A549 NSCLC; CCRF-CEM leukemia; HCT-15 colon; HL-60(TB) leukemia; HOP-62 NSCLC; HT29 colon; KM12 colon; LOX IMVI melanoma; NCI-H522 lung; OVCAR-8 ovarian; SF-268 CNS; SNB-19 CNS; SNB-75 CNS; T-47D breast.
Test in all cases: DTP human tumour cell line panel, 48 h

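96-well plates; 48 h exposure; 5 concentrations. Endpoints by linear interpolation between flanking doses. Not reached: highest tested concentration assigned. Abbreviation: GI50, concentration required for 50% inhibition of growth. At the TGI there is no net growth.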 Where a SMILES comes first, the peptide text is derived from it. [ ]: non-standard residue; d: D form. ΔPro = O=C(O)[CH]1C=CCN1

Usually TGI stands for the concentration at which net growth stops. The low end stands for more potent growth arrest, the high end for less potent growth arrest. Regarding `c1ccc2sc(SSSc3nc4ccccc4s3)nc2c1`, the TGI in the test with 786-0 renal, in the test on A549 NSCLC, in the test on CCRF-CEM leukemia, with HCT-15 colon, in the test with HL-60(TB) leukemia and with HOP-62 NSCLC was more than 100 µM each time. Besides, the TGI is more than 100 µM in the test on HT29 colon; more than 100 µM with KM12 colon; 49 µM in the test with LOX IMVI melanoma; more than 100 µM in the test on NCI-H522 lung; more than 100 µM with OVCAR-8 ovarian; more than 100 µM with SF-268 CNS. The TGI in the test on SNB-19 CNS, in the test on SNB-75 CNS and in the test with T-47D breast was more than 100 µM throughout.

Regarding `COc1ccc(N2C(=O)C(Cl)C2c2cc3cc(Br)ccc3nc2Cl)cc1` (stereo unspecified), the TGI with 786-0 renal was 18.5 µM; in the test on A549 NSCLC, more than 25 µM; with CCRF-CEM leukemia it was 14.7 µM; with HCT-15 colon it was 11 µM; in the test on HL-60(TB) leukemia, 14.5 µM; with HOP-62 NSCLC it was 20.4 µM. Moreover, the concentration for total growth inhibition (TGI) in the test on HT29 colon was 8.84 µM; in the test with KM12 colon, more than 25 µM; with LOX IMVI melanoma, 4.41 µM; in the test on NCI-H522 lung, 8.33 µM; with OVCAR-8 ovarian, more than 25 µM; in the test on SF-268 CNS, 19 µM. The TGI in the test with SNB-19 CNS, in the test with SNB-75 CNS and in the test on T-47D breast was more than 25 µM each time.

Take `O[C@@]1(C#Cc2ccc3c(c2)OCO3)CCC[C@H]1NCc1ccccc1`: the concentration for total growth inhibition (TGI) with 786-0 renal was 31.3 µM; with A549 NSCLC it was more than 100 µM; with CCRF-CEM leukemia, 99.7 µM; with HCT-15 colon, 47.3 µM; with HL-60(TB) leukemia, 39.1 µM; with HOP-62 NSCLC, 78.2 µM. The TGI is 44.9 µM in the test with HT29 colon; 42.7 µM in the test with KM12 colon; 30.9 µM in the test on LOX IMVI melanoma; 29.8 µM with NCI-H522 lung; 59 µM in the test with OVCAR-8 ovarian; more than 100 µM with SF-268 CNS. Besides, the figures for the TGI with SNB-19 CNS, in the test with SNB-75 CNS and in the test with T-47D breast were 68.4 µM, 89.8 µM and 41.2 µM, respectively.

In the case of `O=c1[nH]c(=O)c2c([nH]1)[nH]c1ccc(Br)cc12`, the TGI in the test on 786-0 renal, in the test with A549 NSCLC, in the test with CCRF-CEM leukemia, with HCT-15 colon, with HL-60(TB) leukemia and with HOP-62 NSCLC was more than 100 µM in each case. Moreover, the total growth inhibition concentration (TGI) with HT29 colon was more than 100 µM; in the test on KM12 colon, 79.3 µM; in the test on LOX IMVI melanoma, more than 100 µM; in the test on NCI-H522 lung it was more than 100 µM; in the test on OVCAR-8 ovarian it was more than 100 µM; in the test on SF-268 CNS, more than 100 µM. For the same compound, the TGI with SNB-19 CNS, in the test with SNB-75 CNS and in the test with T-47D breast was more than 100 µM throughout.

On to `CC1=NN(c2ccc(S(=O)(=O)O)cc2)C2(C1)C(Cl)C(=O)N2c1nc2ccccc2s1` (stereo unspecified), for which the TGI with 786-0 renal, in the test on A549 NSCLC, in the test with CCRF-CEM leukemia, in the test with HCT-15 colon, in the test on HL-60(TB) leukemia and in the test with HOP-62 NSCLC was more than 100 µM in each case. Moreover, the concentration for total growth inhibition (TGI) in the test with HT29 colon, in the test on KM12 colon, in the test with LOX IMVI melanoma, with NCI-H522 lung, in the test on OVCAR-8 ovarian and in the test with SF-268 CNS was more than 100 µM throughout. In addition, the total growth inhibition concentration (TGI) with SNB-19 CNS, in the test with SNB-75 CNS and in the test on T-47D breast was more than 100 µM in each case.

On to `C/C(=C\COP(=O)(O)OP(=O)(O)O)CCCCCCOCc1ccccc1`, for which the total growth inhibition concentration (TGI) with 786-0 renal, in the test with A549 NSCLC, in the test on CCRF-CEM leukemia, in the test with HCT-15 colon, with HL-60(TB) leukemia and in the test on HOP-62 NSCLC was more than 100 µM throughout. Moreover, the TGI in the test on HT29 colon, in the test with KM12 colon, in the test with LOX IMVI melanoma, in the test with NCI-H522 lung, in the test on OVCAR-8 ovarian and in the test on SF-268 CNS was more than 100 µM in each case. The total growth inhibition concentration (TGI) with SNB-19 CNS, in the test on SNB-75 CNS and in the test on T-47D breast was more than 100 µM throughout.

On to `CCCC(=O)OCC1OC(n2cc(F)c(=O)[nH]c2=O)CC1O` (stereo unspecified), for which the TGI in the test with 786-0 renal, in the test on A549 NSCLC, in the test on CCRF-CEM leukemia, with HCT-15 colon, in the test on HL-60(TB) leukemia and with HOP-62 NSCLC was more than 10 µM throughout. For the same compound, the total growth inhibition concentration (TGI) in the test on HT29 colon is more than 10 µM; in the test on KM12 colon, more than 10 µM; in the test with LOX IMVI melanoma it was more than 8.79 µM; in the test on NCI-H522 lung, more than 10 µM; in the test with OVCAR-8 ovarian, more than 10 µM; in the test with SF-268 CNS, more than 10 µM. The total growth inhibition concentration (TGI) in the test with SNB-19 CNS is more than 10 µM; in the test with SNB-75 CNS, 9.55 µM; in the test with T-47D breast, more than 10 µM.

As to `COc1ccc(-c2sc(Br)c3c2C(=O)C2OC(=O)NC32)cc1OC` (stereo unspecified), the total growth inhibition concentration (TGI) with 786-0 renal, with A549 NSCLC, in the test with CCRF-CEM leukemia, in the test with HCT-15 colon, with HL-60(TB) leukemia and with HOP-62 NSCLC was more than 100 µM in each case. In addition, the concentration for total growth inhibition (TGI) in the test on HT29 colon, in the test on KM12 colon, in the test on LOX IMVI melanoma, with NCI-H522 lung, with OVCAR-8 ovarian and with SF-268 CNS was more than 100 µM in each case. Moreover, the TGI with SNB-19 CNS, in the test with SNB-75 CNS and with T-47D breast was more than 100 µM throughout.

As for `C=C(COCO)C(C)=O`, the TGI is 25.6 µM in the test on 786-0 renal; more than 64.7 µM in the test on A549 NSCLC; 9.64 µM in the test on CCRF-CEM leukemia; 39.6 µM in the test with HCT-15 colon; 5.78 µM in the test on HL-60(TB) leukemia; more than 68.5 µM with HOP-62 NSCLC. Moreover, the TGI is 35 µM in the test with HT29 colon; more than 54.5 µM in the test with KM12 colon; 31.7 µM with LOX IMVI melanoma; 3.75 µM in the test on NCI-H522 lung; 24.6 µM in the test with OVCAR-8 ovarian; 38 µM in the test on SF-268 CNS. Moreover, the concentration for total growth inhibition (TGI) with SNB-19 CNS is more than 100 µM; in the test with SNB-75 CNS, 30.5 µM; with T-47D breast, 36.7 µM.

As for `CCO/C(O)=C(/C(=N)N1CCOCC1)C(=O)NC(C)C`, the TGI with 786-0 renal, in the test on A549 NSCLC, with CCRF-CEM leukemia, in the test on HCT-15 colon, with HL-60(TB) leukemia and in the test on HOP-62 NSCLC was more than 100 µM each time. In addition, the concentration for total growth inhibition (TGI) in the test with HT29 colon, in the test with KM12 colon, with LOX IMVI melanoma, in the test with NCI-H522 lung, in the test with OVCAR-8 ovarian and in the test with SF-268 CNS was more than 100 µM each time. In addition, the TGI with SNB-19 CNS, in the test on SNB-75 CNS and in the test with T-47D breast was more than 100 µM throughout.

For `C=C1c2nc3ccccc3n2C=C(c2ccccc2)N1c1ccc(Cl)cc1`, the TGI in the test on 786-0 renal is 20.6 µM; with A549 NSCLC, more than 100 µM; in the test with CCRF-CEM leukemia, more than 100 µM; in the test on HCT-15 colon it was more than 90.1 µM; in the test with HL-60(TB) leukemia, more than 100 µM; in the test with HOP-62 NSCLC it was more than 63.3 µM. The total growth inhibition concentration (TGI) in the test with HT29 colon is more than 100 µM; in the test on KM12 colon, 66.3 µM; in the test with LOX IMVI melanoma, more than 100 µM; in the test on NCI-H522 lung, more than 100 µM; in the test with OVCAR-8 ovarian, more than 93.1 µM; with SF-268 CNS, more than 100 µM. For the same compound, the total growth inhibition concentration (TGI) in the test on SNB-19 CNS is more than 100 µM; in the test on SNB-75 CNS it was 19 µM; in the test on T-47D breast, more than 100 µM.

With `COc1ccccc1-n1nnc2c(N)nc(N)nc21`, the concentration for total growth inhibition (TGI) in the test with 786-0 renal, with A549 NSCLC, in the test with CCRF-CEM leukemia, with HCT-15 colon, in the test with HL-60(TB) leukemia and in the test with HOP-62 NSCLC was more than 100 µM throughout. The total growth inhibition concentration (TGI) in the test on HT29 colon, in the test on KM12 colon, with LOX IMVI melanoma, with NCI-H522 lung, with OVCAR-8 ovarian and in the test with SF-268 CNS was more than 100 µM each time. The total growth inhibition concentration (TGI) in the test on SNB-19 CNS, with SNB-75 CNS and with T-47D breast was more than 100 µM in each case.

Usually GI50 stands for the concentration that inhibits growth by half. `CC(=O)OCC1OC(n2c(C)c(C(C)=O)c(-c3ccco3)c(C#N)c2=S)C(OC(C)=O)C(OC(C)=O)C1OC(C)=O` (stereo unspecified): the TGI with 786-0 renal, in the test on A549 NSCLC, in the test on CCRF-CEM leukemia, in the test on HCT-15 colon, in the test with HL-60(TB) leukemia and in the test on HOP-62 NSCLC was more than 100 µM in each case. The concentration for total growth inhibition (TGI) in the test on HT29 colon, with KM12 colon, in the test with LOX IMVI melanoma, with NCI-H522 lung, in the test on OVCAR-8 ovarian and in the test with SF-268 CNS was more than 100 µM each time. Besides, the TGI with SNB-19 CNS is more than 100 µM; in the test on SNB-75 CNS, 82.1 µM; in the test on T-47D breast it was more than 100 µM. Also, the GI50 in the test on SNB-75 CNS was 0.171 µM.

Take `O=C(O)C1C=CCN1C(=O)C1C=CCN1C(=O)C1C=CCN1` (stereo unspecified) (H-[ΔPro]-[ΔPro]-[ΔPro]-OH; configuration not given here): the total growth inhibition concentration (TGI) in the test on 786-0 renal, with A549 NSCLC, in the test with CCRF-CEM leukemia, in the test on HCT-15 colon, with HL-60(TB) leukemia and in the test on HOP-62 NSCLC was more than 100 µM throughout. For the same compound, the concentration for total growth inhibition (TGI) in the test on HT29 colon, with KM12 colon, with LOX IMVI melanoma, with NCI-H522 lung, in the test with OVCAR-8 ovarian and in the test with SF-268 CNS was more than 100 µM in each case. In addition, the total growth inhibition concentration (TGI) in the test with SNB-19 CNS, in the test on SNB-75 CNS and in the test on T-47D breast was more than 100 µM each time.
